Results on 4 compounds are retold here after publication PMC8832557 (Cell Metabolism, 2022).

Read-outs that look alike come from different tables or passages of the source.

The target in assay [1] is T1, ACE2 (angiotensin-I converting enzyme 2) (Homo sapiens, UniProt Q9BYF1). Kind of assay: SPR. It is filed as binding.
In assay [2] the target is T1, ACE2 (angiotensin-I converting enzyme 2). The assay is described as follows: SPR. It is filed as binding. This is another data set of the same source.

T1 sequence (Q9BYF1 18-805): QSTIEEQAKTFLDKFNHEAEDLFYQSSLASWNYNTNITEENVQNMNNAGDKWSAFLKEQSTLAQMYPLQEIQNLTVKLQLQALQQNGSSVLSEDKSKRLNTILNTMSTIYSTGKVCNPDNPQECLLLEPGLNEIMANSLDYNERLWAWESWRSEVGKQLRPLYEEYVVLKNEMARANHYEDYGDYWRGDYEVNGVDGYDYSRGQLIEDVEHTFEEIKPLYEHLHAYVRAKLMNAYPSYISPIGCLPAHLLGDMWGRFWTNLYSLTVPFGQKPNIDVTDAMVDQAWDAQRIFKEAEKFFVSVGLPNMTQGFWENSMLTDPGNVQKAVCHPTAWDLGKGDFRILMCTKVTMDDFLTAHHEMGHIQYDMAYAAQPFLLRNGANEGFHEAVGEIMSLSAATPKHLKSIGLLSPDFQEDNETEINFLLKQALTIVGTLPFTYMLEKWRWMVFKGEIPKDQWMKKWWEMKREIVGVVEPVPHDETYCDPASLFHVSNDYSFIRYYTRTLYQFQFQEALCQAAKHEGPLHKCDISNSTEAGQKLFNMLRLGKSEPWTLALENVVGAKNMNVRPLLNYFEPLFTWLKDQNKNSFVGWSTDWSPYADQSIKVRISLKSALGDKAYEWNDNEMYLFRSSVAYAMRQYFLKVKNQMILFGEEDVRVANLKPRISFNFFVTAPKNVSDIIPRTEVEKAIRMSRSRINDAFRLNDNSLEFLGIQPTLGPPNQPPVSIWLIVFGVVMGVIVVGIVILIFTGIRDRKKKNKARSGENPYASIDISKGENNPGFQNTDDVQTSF

With `Cc1ccc(NC(=O)c2ccc(CN3CCN(C)CC3)cc2)cc1Nc1nccc(-c2cccnc2)n1` [Ima, imatinib], the Kd in assay [1] amounted to 12.7 µM.

In the case of `CC(=O)/N=c1/sc(S(N)(=O)=O)nn1C` [Met, methazolamide], in assay [1], the Kd came to 70 µM.

For `C[C@]1(OC(=O)/C=C/c2ccccc2)C[C@@H](O)[C@]2(O)C=CO[C@@H](O[C@@H]3O[C@H](CO)[C@@H](O)[C@H](O)[C@H]3O)[C@@H]21` [Har, harpagoside], in assay [1], the affinity, expressed as Kd, was 86.1 µM.

`N=C(N)c1ccc(/N=N/Nc2ccc(C(=N)N)cc2)cc1` [DIZE, diminazene aceturate] registered a Kd in assay [2] of 4.9 µM.

By Kd is commonly meant the concentration at which binding is half-saturated.
